Assay results: patent publication US11230526B1, “Cylcoalkenyl derivatives useful as agonists of the GPR120 and/or GPR40 receptors” (Janssen Pharmaceutica NV, priority 2018, dated 2022)

Biological target: T1, short form of the GPR120 receptor (Homo sapiens, UniProt Q5NUL3)
T1 construct: host or cells: PathHunter CHO-K1 GPR120S β-Arrestin Cell Line
Experiment: Human GPR120 DiscoveRx PathHunter Beta-Arrestin assay, Procedure β-arrestin B
Assay type: cell-based
From the text: Human GPR120 DiscoveRx PathHunter® Beta-Arrestin Assay Assay Principle:
The binding of an agonist (medium/long chain fatty acids or small molecule agonists) to the G-protein-coupled receptor GPR120 activates phospholipase C, leading to release of intracellular Ca^+2 through the generation of inositol 1,4,5-trisphosphate (InsP3 or IP3). GPR120 activation can also trigger intracellular signaling via recruitment of Beta-Arrestin. In the present method, agonist-induced activation of the human GPR120 receptor is monitored through the use of PathHunter® CHO-K1 GPR120 Beta-Arrestin Cell Line engineered by DiscoveRx, as detailed below. The cell lines are designed to co-express both the ProLink/Enzyme Donor (PK)-tagged GPCR and the Enzyme […] (EA)-tagged Beta-Arrestin fusion proteins. Upon GPR120 receptor stimulation/activation, the EA-tagged Beta-Arrestin portion is translocated to the tagged receptor, where the two enzyme fragments are brought within close proximity. Under these conditions, these fragments can interact and form an active Beta-gal enzyme complex through Enzyme Fragment Complementation (EFC). This active Beta-gal complex can enzymatically hydrolyse the substrate to produce a detectable light signal; therefore, activation as a function of agonist concentration can be expressed as an EC50 value to determine relative compound activities. This in vitro assay therefore serves to assess compound agonist activity of the GPR120.
In Procedure β-arrestin B the cells used were PathHunter® CHO-K1 GPR120S β-Arrestin Cell Line, expressing the short form of the GPR120 receptor (Accession #[…]), with 5000 cells/well.
The selected CHO-K1 GPR120 β-Arrestin cells were cultured in Ham's F12 media supplemented with 10% fetal bovine serum (FBS), 1% Glutamine, 1×p/s, 800 μg/mL G418 and 300 μg/mL Hygromycin B (for selection). Cell stocks were maintained and grown in a sub-confluent state using standard cell culture procedures. The day before the experiment, the cells were harvested with non-enzymatic cell dissociation buffer and re-suspended in complete growth media at the desired concentration. A Corning 384-plate was then seeded with the proper number of cells in a volume of 25 μL, per well. The seeded plates were incubated overnight at 37° C.
On the day of the experiment, the Assay Buffer containing (a) HBSS with Ca^++ and Mg^++, (b) 20 mM HEPES, and (c) 0.1% BSA stabilizer (pH 7.4) was prepared. The growth medium was gently removed from the cell plates and 20 μL of Assay Buffer added to each well. The plate was then incubated at 37° C. for 60 min. Test compounds were serially diluted in Assay Buffer to desired concentrations (more particularly to one or more of the following μM concentrations: 25, 12.5, 6.25, 3.12, 1.56, 0.78, 0.39, 0.19, 0.10, 0.05, 0.02, 0.01). Five μL of compound dilution was then added to each well and the plate incubated at 37° C. for 90 min. The detection reagents were prepared according to the manufacture's instruction. Twelve μL of the detection reagents were added to each well and the plate incubated at room temperature for 60 min.
The plates were read on an EnVision instrument, using Protocol name: Luminescence, Plate type: 384 Costar, Measurement height: 3 mm, Measurement time: 1 s, Aperture: 384 Plate aperture. The % Activity relative to the positive control was calculated using the following equation:
The % Activity values were plotted versus the concentration of test compound and fitted to a sigmoidal dose-response curve with a Hill slope=1 (fixed value) using nonlinear regression with GraphPad Prism 5.0 to calculate the EC50 values. The Fitting Equation was: Y=Bottom+(Top-Bottom)/(1+10^((Log EC50−X)*HillSlope)), where X is the log of the concentration and Y is the response.

T1 sequence (Q5NUL3 whole entry): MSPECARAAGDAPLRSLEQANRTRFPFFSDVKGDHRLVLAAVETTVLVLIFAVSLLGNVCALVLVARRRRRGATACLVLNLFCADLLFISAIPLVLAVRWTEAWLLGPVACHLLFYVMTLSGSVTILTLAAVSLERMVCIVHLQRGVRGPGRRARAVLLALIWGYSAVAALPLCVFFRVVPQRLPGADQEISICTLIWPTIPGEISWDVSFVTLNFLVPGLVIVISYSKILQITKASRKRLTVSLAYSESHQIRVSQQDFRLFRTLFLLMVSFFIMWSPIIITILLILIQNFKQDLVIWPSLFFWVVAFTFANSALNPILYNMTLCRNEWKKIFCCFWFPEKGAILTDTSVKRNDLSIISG
T1 sequence (P32121 whole entry partner): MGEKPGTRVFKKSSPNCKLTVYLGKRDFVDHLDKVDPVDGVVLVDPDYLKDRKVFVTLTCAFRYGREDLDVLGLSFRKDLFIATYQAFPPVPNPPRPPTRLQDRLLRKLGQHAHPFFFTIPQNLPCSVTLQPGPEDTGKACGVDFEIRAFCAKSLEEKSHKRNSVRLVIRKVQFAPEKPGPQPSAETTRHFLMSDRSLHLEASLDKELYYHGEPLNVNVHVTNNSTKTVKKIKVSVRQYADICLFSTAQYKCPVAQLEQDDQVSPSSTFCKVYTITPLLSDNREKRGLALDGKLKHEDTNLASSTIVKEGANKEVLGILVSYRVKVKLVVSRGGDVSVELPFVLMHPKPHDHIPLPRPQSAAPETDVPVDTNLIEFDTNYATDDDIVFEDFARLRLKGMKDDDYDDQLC

Compound | EC50 [nM]
Cc1c(CCC(=O)O)ccc(OCC2=C(c3ccc(F)cc3)CCC2)c1C [Compound 4, 3-[4-[[2-(4-fluorophenyl)cyclopenten-1-yl]methoxy]-2,3-dimethyl-phenyl]Propanoic Acid] | 164
Cc1c(CCC(=O)O)ccc(OCC2=C(c3ccc(Cl)cc3)CCC2)c1C [Compound 15, 3-(4-((2-(4-chlorophenyl)cyclopent-1-en-1-yl)methoxy)-2,3-dimethylphenyl)Propanoic Acid] | 122
CCc1ccc(C2=C(COc3c(F)cc(CCC(=O)O)cc3F)CCC2)cc1 [Compound 16, 3-(4-((2-(4-ethylphenyl)cyclopent-1-en-1-yl)methoxy)-3,5-difluorophenyl)Propanoic Acid] | 149
Cc1c(CCC(=O)O)ccc(OCC2=C(c3ccc(OC(F)(F)F)cc3)CCC2)c1C [Compound 20, 3-(2,3-dimethyl-4-((2-(4-(trifluoromethoxy)phenyl)cyclopent-1-en-1-yl)methoxy)phenyl)Propanoic Acid] | > 5000
Cc1c(CCC(=O)O)ccc(OCC2=C(c3ccccc3)CCC2)c1C [Compound 23, 3-(2,3-dimethyl-4-((2-phenylcyclopent-1-en-1-yl)methoxy)phenyl)Propanoic Acid] | 337
CCc1ccc(C2=C(COc3ccc(CCC(=O)O)c(F)c3F)CCC2)cc1 [Compound 25, 3-(4-((2-(4-ethylphenyl)cyclopent-1-en-1-yl)methoxy)-2,3-difluorophenyl)Propanoic Acid] | 89
CCc1ccc(C2=C(COc3ccc(CCC(=O)O)c(C)c3C)CCC2)cc1 [Compound 27, 3-(4-((2-(4-ethylphenyl)cyclopent-1-en-1-yl)methoxy)-2,3-dimethylphenyl)Propanoic Acid] | 77
O=C(O)CCc1ccc(OCC2=C(c3ccc(Cl)cc3)CCC2)cc1F [Compound 47, 3-[4-[[2-(4-chlorophenyl)cyclopenten-1-yl]methoxy]-2-fluoro-phenyl]Propanoic Acid] | 273
Cc1ccc(C2=C(COc3ccc(CCC(=O)O)c(C)c3C)CCC2)cc1 [Compound 52, 3-[2,3-dimethyl-4-[[2-(p-tolyl)cyclopenten-1-yl]methoxy]phenyl]Propanoic Acid] | 63
Cc1c(CCC(=O)O)ccc(OCC2=C(c3cccc(Cl)c3)CCC2)c1C [Compound 58, 3-[4-[[2-(3-chlorophenyl)cyclopenten-1-yl]methoxy]-2,3-dimethyl-phenyl]Propanoic Acid] | 275
O=C(O)CCc1cc(F)c(OCC2=C(c3ccc(Cl)cc3)CCC2)c(F)c1 [Compound 60, 3-[4-[[2-(4-chlorophenyl)cyclopenten-1-yl]methoxy]-3,5-difluoro-phenyl]Propanoic Acid] | 359
Cc1cc(CCC(=O)O)ccc1OCC1=C(c2ccc(Cl)cc2)CCC1 [Compound 62, 3-[4-[[2-(4-chlorophenyl)cyclopenten-1-yl]methoxy]-3-methyl-phenyl]Propanoic Acid] | 75
COc1cc(F)cc(C2=C(COc3ccc(CCC(=O)O)c(C)c3C)CCC2)c1 [Compound 65, 3-[4-[[2-(3-fluoro-5-methoxy-phenyl)cyclopenten-1-yl]methoxy]-2,3-dimethyl-phenyl]Propanoic Acid] | 1630
Cc1c(CCC(=O)O)ccc(OCC2=C(c3ccc(Cl)c(Cl)c3)CCC2)c1C [Compound 66, 3-[4-[[2-(3,4-dichlorophenyl)cyclopenten-1-yl]methoxy]-2,3-dimethyl-phenyl]Propanoic Acid] | 629
O=C(O)CCc1ccc(OCC2=C(c3ccc(Cl)cc3)CCC2)c(F)c1F [Compound 70, 3-[4-[[2-(4-chlorophenyl)cyclopenten-1-yl]methoxy]-2,3-difluoro-phenyl]Propanoic Acid] | 73
Cc1ccc(C2=C(COc3ccc(CCC(=O)O)c(F)c3F)CCC2)c(C)c1 [Compound 72, 3-(4-((2-(2,4-dimethylphenyl)cyclopent-1-en-1-yl)methoxy)-2,3-difluorophenyl)Propanoic Acid] | 648

Compound | EC50 [nM]
Cc1c(CCC(=O)O)ccc(OCC2=C(c3ccccc3Cl)CCC2)c1C [Compound 76, 3-[4-[[2-(2-chlorophenyl)cyclopenten-1-yl]methoxy]-2,3-dimethyl-phenyl]Propanoic Acid] | 281
Cc1c(CCC(=O)O)ccc(OCC2=C(c3cccs3)CCC2)c1C [Compound 77, 3-[2,3-dimethyl-4-[[2-(2-thienyl)cyclopenten-1-yl]methoxy]phenyl]Propanoic Acid] | 369
Cc1ccc(C2=C(COc3ccc(CCC(=O)O)c(F)c3F)CCC2)cc1F [Compound 78, 3-(2,3-difluoro-4-((2-(3-fluoro-4-methylphenyl)cyclopent-1-en-1-yl)methoxy)phenyl)Propanoic Acid] | 75
Cc1c(CCC(=O)O)ccc(OCC2=C(c3nccs3)CCC2)c1C [Compound 79, 3-[2,3-dimethyl-4-[(2-thiazol-2-ylcyclopenten-1-yl)methoxy]phenyl]Propanoic Acid] | 596
Cc1ccc(C2=C(COc3ccc(CCC(=O)O)c(C)c3C)CCC2)cc1F [Compound 80, 3-(4-((2-(3-fluoro-4-methylphenyl)cyclopent-1-en-1-yl)methoxy)-2,3-dimethylphenyl)Propanoic Acid] | 139
Cc1ccc(C2=C(COc3ccc(CCC(=O)O)c(C)c3C)CCC2)c(C)c1 [Compound 82] | 1090
Cc1ccc(C2=C(COc3ccc(CCC(=O)O)c(F)c3F)CCC2)cc1C [Compound 83, 3-(4-((2-(3,4-dimethylphenyl)cyclopent-1-en-1-yl)methoxy)-2,3-difluorophenyl)Propanoic Acid] | 630
Cc1ccc(C2=C(COc3c(F)cc(CCC(=O)O)cc3F)CCC2)cc1C [Compound 84, 3-(4-((2-(3,4-dimethylphenyl)cyclopent-1-en-1-yl)methoxy)-3,5-difluorophenyl)Propanoic Acid] | 533
Cc1ccc(C2=C(COc3ccc(CCC(=O)O)c(C)c3C)CCC2)cn1 [Compound 85, 3-(2,3-dimethyl-4-((2-(6-methylpyridin-3-yl)cyclopent-1-en-1-yl)methoxy)phenyl)Propanoic Acid] | 725
Cc1c(CCC(=O)O)ccc(OCC2=C(c3cncs3)CCC2)c1C [Compound 88, 3-[2,3-dimethyl-4-[(2-thiazol-5-ylcyclopenten-1-yl)methoxy]phenyl]Propanoic Acid] | 588
Cc1ccc(C2=C(COc3ccc(CCC(=O)O)c(F)c3F)CCC2)cc1N [Compound 93, 3-(4-((2-(3-amino-4-methylphenyl)cyclopent-1-en-1-yl)methoxy)-2,3-difluorophenyl)Propanoic Acid] | 587
Cc1ccc(C2=C(COc3ccc(CCC(=O)O)c(F)c3F)CCC2)cc1 [Compound 94, 3-(2,3-difluoro-4-((2-(p-tolyl)cyclopent-1-en-1-yl)methoxy)phenyl)Propanoic Acid] | 47
Cc1ccc(C2=C(COc3c(F)cc(CCC(=O)O)cc3F)CCC2)cc1 [Compound 95, 3-(3,5-difluoro-4-((2-(p-tolyl)cyclopent-1-en-1-yl)methoxy)phenyl)Propanoic Acid] | 76
Cc1ccc(C2=C(COc3ccc(CCC(=O)O)cc3C)CCC2)cn1 [Compound 102, 3-(3-methyl-4-((2-(6-methylpyridin-3-yl)cyclopent-1-en-1-yl)methoxy)phenyl)Propanoic Acid] | 365
Cc1c(CCC(=O)O)ccc(OCC2=C(c3ncccn3)CCC2)c1C [Compound 105, 3-[2,3-dimethyl-4-[(2-pyrimidin-2-ylcyclopenten-1-yl)methoxy]phenyl]Propanoic Acid] | 445
Cc1ccc(C2=C(COc3ccc(CCC(=O)O)c(C)c3C)CCC2)cc1C [Compound 106, 3-(4-((2-(3,4-dimethylphenyl)cyclopent-1-en-1-yl)methoxy)-2,3-dimethylphenyl)Propanoic Acid] | 853
